Measured values as given in patent publication US5075303A, “Pyridine derivatives” (John Wyeth & Brother Limited, priority 1989, dated 1991).

Tests used:
5-HT1A receptor = target: T1, 5-HT1A receptor (Rattus norvegicus, UniProt P19327); experiment: 5-HT1A receptor binding activity in rat hippocampal membrane homogenate
T1 construct: rat hippocampal membrane homogenate; from tissue; host or cells: rat hippocampus (membrane homogenate)
T1 sequence (P19327 1-422): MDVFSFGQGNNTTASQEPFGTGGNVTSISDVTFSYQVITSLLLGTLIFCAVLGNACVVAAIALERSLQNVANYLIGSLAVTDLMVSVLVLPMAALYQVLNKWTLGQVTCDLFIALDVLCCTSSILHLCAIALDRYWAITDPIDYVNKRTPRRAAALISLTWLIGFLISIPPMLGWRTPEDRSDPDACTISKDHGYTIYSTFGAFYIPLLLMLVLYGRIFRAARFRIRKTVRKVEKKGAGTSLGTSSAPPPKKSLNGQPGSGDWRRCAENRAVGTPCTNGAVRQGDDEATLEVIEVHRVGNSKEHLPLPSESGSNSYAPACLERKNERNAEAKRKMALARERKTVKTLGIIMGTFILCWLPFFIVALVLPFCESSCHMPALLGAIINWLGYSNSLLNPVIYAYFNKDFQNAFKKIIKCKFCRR
Protocol: The compounds of the invention were tested for 5 HT1A receptor binding activity in rat hippocampal membrane homogenate by the method of B S Alexander and M D Wood, J Pharm Pharmacol, 1988, 40, 888-891.

5-HT1 receptor = target: T2, 5-HT1 receptor (Rattus norvegicus, UniProt P19327); experiment: 5-HT1 receptor agonist activity in vivo: 5-HT related behaviour in rats following i.v. administration; settings: iv, calculated by the method of Kimball et al
T2 construct: 5-HT related behaviour in rats following i.v. administration; from tissue; host or cells: living rat (in vivo test, endogenous receptor)
T2 sequence (P19327 1-422): T1 sequence (P19327 1-422)
Protocol: The compounds are evaluated for 5-HT1 receptor agonist activity in vivo by a method involving the assessment of 5-HT related behaviour in rats following i.v. administration of the test compound (M D Tricklebank et al, European Journal of Pharmacol, 1985, 106, 271-282).

5HT1A receptor = target: T3, 5HT1A receptor (Cavia porcellus, UniProt A0A286Y074); experiment: antagonism of 8-hydroxy-2-(di-n-propylamino)tetralin in the guinea-pig ileum in vitro; type: biochemical
T3 construct: in the guinea-pig ileum in vitro; from tissue; host or cells: guinea-pig ileum
T3 sequence (A0A286Y074 1-421): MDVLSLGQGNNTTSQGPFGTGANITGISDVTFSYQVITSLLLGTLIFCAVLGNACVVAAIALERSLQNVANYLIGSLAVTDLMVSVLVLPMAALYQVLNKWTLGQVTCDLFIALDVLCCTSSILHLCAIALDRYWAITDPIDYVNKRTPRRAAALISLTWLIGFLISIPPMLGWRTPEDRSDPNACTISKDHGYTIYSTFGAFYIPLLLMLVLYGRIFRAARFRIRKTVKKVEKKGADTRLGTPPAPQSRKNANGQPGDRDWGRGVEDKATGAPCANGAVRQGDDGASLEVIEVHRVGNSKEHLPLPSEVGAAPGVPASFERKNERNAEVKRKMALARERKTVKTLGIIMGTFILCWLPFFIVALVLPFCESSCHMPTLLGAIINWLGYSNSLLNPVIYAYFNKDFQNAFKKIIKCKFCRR

Row | SMILES | IC50 (5-HT1A receptor) [nM] | ED50 (5-HT1 receptor) [mg/kg] | pA2 (5HT1A receptor)
1 | CN(C)C1CCc2cccnc2C1 (stereo not drawn) [Example 3, 5,6,7,8-Tetrahydro-7-dimethylaminoquinoline] | 137 | – | –
2 | CCCN(CCC)C1CCc2cccnc2C1 (stereo not drawn) [Example 12, 5,6,7,8-Tetrahydro-7--(1,1-dipropylamino)quinoline] | 138 | 0.62 | –
3 | CCCN(CC1COc2ccccc2O1)C1CCc2cccnc2C1 (stereo not drawn) [Example 15] | 42 | – | –
4 | CN(CCCCN1C(=O)CC2(CCCC2)CC1=O)C1CCc2cccnc2C1 (stereo not drawn) [Example 16, 8-{4-[N-(5,6,7,8-Tetrahydroquinolin-7 yl) N-methyl]aminobutyl}-8-azaspiro[4.5]decan 7,9-dione] | 26 | 0.81 | 7.7

The remaining lines, values ahead:

Row | IC50 (5-HT1A receptor) [nM] | ED50 (5-HT1 receptor) [mg/kg] | pA2 (5HT1A receptor) | SMILES
5 | 9 | 0.52 | – | CCCN(CCNC(=O)c1ccc(F)cc1)C1CCc2cccnc2C1 (stereo not drawn) [Example 19, 4-Fluoro-N-[2-[N --(5,6,7,8-tetrahydroquinoin-7 yl)-N'-propyl]aminoethyl}benzamide]
6 | 68 | – | – | CN(CCC1COc2ccccc2O1)C1CCc2cccnc2C1 (stereo not drawn) [Example 20, 7-Amino-5,6,7,8-tetrahydro N-{2 [2 (2,3 dihydro-1,4-benzodioxinyl)]ethyl}-N-methylquinoline]
7 | 131 | – | – | CN(CCNC(=O)Cc1c(F)cccc1F)C1CCc2cccnc2C1 (stereo not drawn) [Example 35, N-{2-[N'-(5,6,7,8-Tetrahydroquinolin-7 yl)-N'-methyl]aminoethyl}-2,6-difluorophenylacetamide]
8 | 55 | 0.57 | – | c1cnc2c(c1)CCC(N1CCCC1)C2 (stereo not drawn) [Example 38, 5,6,7,8-Tetrahydro 7-pyrrolidinoquinoline]
9 | 136 | 1.1 | – | c1cnc2c(c1)CCC(N1CCC1)C2 (stereo not drawn) [Example 50, 7-Azetidino-5,6,7,8-tetrahydroquinoline]
